The results in this text go back to patent US6030823A, “D-aminoacylase” (Daicel Chemical Industries, Ltd., priority 1998, dated 2000).

One assay concerns Sebekia benihana IFO14309. Kind of assay: Induction of D-aminoacylase, experiment 1 (PY liquid medium, 0.10% inducer). It is filed as cell-based. Conditions: 20 mM N-acetyl-D-methionine, 30° C., 20 min. Here is the method:
First, Sebekia benihana IFO14309 was cultured with shaking for 74 hours in test tubes, each containing 8.0 ml of PY liquid medium (0.2% glycerol, 2.0% yeast extract, 2.0% polypeptone, pH 7.3) supplemented with 0.10% DL-leucine, 0.10% N-acetyl-DL-leucine, 0.10% DL-methionine, 0.10% N-acetyl-DL-methionine, DL-valine, or 0.10% N-acetyl-DL-valine as inducers (experiment 1).
(§1) From the culture broth obtained in experiments 1, 2, and 3, the cells were collected by centrifugation at 8000 rpm (7000×g) for 20 min with a refrigerated centrifuge (Hitachi Koki Co., Ltd.). The collected cells were washed with 50 mM Tris-HCl buffer (pH 7.5), collected again by centrifugation using the same centrifuge, then stored at -20° C.
(§2) The stored cells were suspended in 20 ml of 50 mM Tris-HCl buffer (pH 7.5) and were disrupted by sonication at 200 W for 15 min. The lysate was centrifuged at 15,000 rpm for 30 min with the above centrifuge, and the supernatant was obtained as a crude enzyme solution.
(§3) The enzymatic reaction was performed in 1.0 ml of a reaction system containing 20 mM N-acetyl-D-methionine, 50 mM Tris-HCl buffer (pH 7.5), 1 mM CoCl2, and 100 μl of the enzyme solution at 30° C. for 20 min (experiment 1), 10 min (experiment 2), and 5 min (experiment 3). The reaction was stopped by adding a TCA solution.
On to `CC(=O)NC(C(=O)O)C(C)C` (racemic) [N-Ac-DL-Valine, N-acetyl-DL-valine], for which the Activity is 0.114 U/ml of broth and the Specific activity is recorded as 0.0341 U/mg.
For `CSCCC(NC(C)=O)C(=O)O` (racemic) [N-Ac-DL-Methionine, N-acetyl-DL-methionine], in that order: 0.0713 U/ml of broth and 0.0186 U/mg.
As for `CSCCC(N)C(=O)O` (racemic) [DL-Methionine, DL-methionine], the Activity is recorded as 0.177 U/ml of broth and the Specific activity came to 0.0475 U/mg.
Consider `CC(=O)NC(CC(C)C)C(=O)O` (racemic) [N-Ac-DL-Leucine, N-acetyl-DL-leucine], for which the Activity was 0.158 U/ml of broth and the Specific activity was determined as 0.0545 U/mg.
For `CC(C)CC(N)C(=O)O` (racemic) [DL-Leucine, DL-leucine], in that order: 0.315 U/ml of broth and 0.0967 U/mg.
Consider `CC(C)C(N)C(=O)O` (racemic) [DL-Valine, DL-valine], for which the Activity is listed as 0.429 U/ml of broth and the Specific activity is given as 0.133 U/mg.

The test system of the next assay is Sebekia benihana IFO14309. Kind of assay: Induction of D-aminoacylase, experiment 2 (seed culture, PY liquid medium, 0.10% inducer). In kind it is cell-based. The note with it: 20 mM N-acetyl-D-methionine, 30° C., 10 min. Here is the method:
Second, a seed culture was prepared by incubating the strain in test tubes, each containing 5.0 ml of PY liquid medium for 71 hours. Then, 0.4 ml of the seed culture was inoculated with a 2-ml Komagome pipette into test tubes, each containing 8.0 ml of PY liquid medium supplemented with 0.10% DL-glutamine, 0.10% DL-histidine, 0.10% DL-isoleucine, 0.10% DL-phenylalanine, 0.10% proline, 0.10% DL-threonine, 0.10% DL-tryptophan, or 0.10% DL-valine as inducers, and cultivated for 74 hours with shaking (experiment 2).
as §1, §2, §3
For `CC(C)C(N)C(=O)O` (racemic) [DL-Valine, DL-valine], the Activity was 0.239 U/ml of broth and the Specific activity was 0.0920 U/mg.

The next assay deals with D-aminoacylase derived from Sebekia benihana IFO14309. Put plainly: Substrate specificity of the aminoacylase. In kind it is biochemical. Conditions: 20 mM substrate, 50 mM Tris-HCl pH 7.5, 30° C., 5 min. Here is the method: The substrate specificity of the aminoacylase was examined using N-acetyl-D-methionine, N-acetyl-D-alanine, N-acetyl-D-aspartic acid, N-acetyl-D-leucine, N-acetyl-D-phenylalanine, N-acetyl-D-tryptophan, N-acetyl-D-valine, N-acetyl-L-leucine, N-acetyl-L-methionine, and N-acetyl-L-valine as substrates. The enzyme activity was assayed as follows. A 0.050-ml aliquot of an enzyme solution was added to 0.950 ml of 20 mM N-acetyl-D(or L)-amino acid in 50 mM Tris-HCl buffer (pH 7.5) and incubated at 30° C. for 5 min. The reaction was then stopped by adding 0.50 ml of a TCA solution to the reaction mixture. The relative activity is shown in Table 5, taking the activity for N-acetyl-L-methionine as 100%.
Take `CC(=O)N[C@H](Cc1c[nH]c2ccccc12)C(=O)O` [N-Ac-D-Trp, N-acetyl-D-tryptophan]: the Relative activity was determined as 64%.
Regarding `CSCC[C@@H](NC(C)=O)C(=O)O` [N-Ac-D-Met, N-acetyl-D-methionine], the Relative activity was 100%.
For the compound `CC(=O)N[C@@H](C(=O)O)C(C)C` [N-Ac-D-Val, N-acetyl-D-valine], the Relative activity came out at 33%.
As for `CC(=O)N[C@H](CC(N)=O)C(=O)O` [N-Ac-D-Asn, N-acetyl-D-asparagine], the Relative activity was 1.4%.
As to `CC(=O)N[C@@H](CC(C)C)C(=O)O` [N-Ac-L-Leu, N-acetyl-L-leucine], the Relative activity is 0%.
For the compound `CC(=O)N[C@H](Cc1ccccc1)C(=O)O` [N-Ac-D-Phe, N-acetyl-D-phenylalanine], the Relative activity stood at 100%.
For the compound `CSCC[C@H](NC(C)=O)C(=O)O` [N-Ac-L-Met, N-acetyl-L-methionine], the Relative activity was determined as 0%.
On to `CC(=O)N[C@H](C(=O)O)C(C)C` [N-Ac-L-Val, N-acetyl-L-valine], for which the Relative activity is listed as 0%.
For the compound `CC(=O)N[C@H](CC(C)C)C(=O)O` [N-Ac-D-Leu, N-acetyl-D-leucine], the Relative activity stood at 255%.
`CC(=O)N[C@H](C)C(=O)O` [N-Ac-D-Ala, N-acetyl-D-alanine]: the Relative activity is listed as 1.1%.
